Assay results taken from US8420640B2, “Methods of treating amyloid disease using analogs of 1-(4-nitrophenyl) piperazine” (Treventis Corporation, priority 2008, dated 2013).

Assays:
Aβ40 = biological target: T1, Aβ40 (Homo sapiens, UniProt P05067); experiment: ThT functional Aβ 1-40 aggregation assay; format: biochemical; conditions: for IC50: 20 μM Aβ, 20 mM Tris pH 7.4, 150 mM NaCl, 1% DMSO, 37° C.; for Ratio: potency with respect to the compound of Example 7, 1=potency of that compound
T1 construct: Compounds Showing Activity Observed in a ThT Functional Aβ 1-40 Aggregation Assay
Procedure: Aβ40 (1.0 mg) was pre-treated in a 1.5 mL microfuge tube with HFIP (1 mL) and sonicated for 20 min to disassemble any pre-formed Aβ aggregates. The HFIP was removed with a stream of argon and the Aβ dissolved in Tris base (5.8 mL, 20 mM, pH ˜10). The pH was adjusted to 7.4 with concentrated HCl (˜10 μL) and the solution filtered using a syringe filter (0.2 μm) before being used.
(§1) The kinetic ThT assay for Aβ aggregation is similar to that of Chalifour et al (Chalifour et al, 2003, J. Biol. Chem. 278:34874-81). Briefly, pre-treated Aβ40 (40 μM in 20 mM Tris, pH 7.4), was diluted with an equal volume of 8 μM ThT in Tris (20 mM, pH 7.4, 300 mM NaCl). Aliquots of Aβ/ThT (200 μL) were added to wells of a black polystyrene 96-well plate, followed by 2 μL of a compound in DMSO (variable concentration), or DMSO alone (controls). Incubations were performed in triplicate and were taken to contain 20 μM Aβ, various concentration of compound in 20 mM Tris, pH 7.4, 150 mM NaCl, 1% DMSO. Plates were covered with clear polystyrene lids and incubated at 37° C. in a Tecan Genios microplate reader. Fluorescence readings (λex=450 nm, λem=480 nm) were taken every 15 min., after first shaking at high intensity for 15 s and allowing to settle for 10 s before each reading. Active compounds attenuated the increase in fluorescence over time that occurred in controls. By repeating this procedure over several concentrations, a mean inhibitory concentration (IC50) was measured, as given in the table below. The column “A-syn” represents a similar procedure measuring inhibition of alpha-synuclein aggregation. The column “ratio” is a reproducible assessment of potency with respect to the compound of Example 7, in which 1=potency of that compound: […]

alpha-synuclein = alpha-synuclein (Homo sapiens, UniProt P37840); experiment: alpha-synuclein aggregation inhibition (procedure similar to the ThT assay); format: biochemical; conditions: inhibition of alpha-synuclein aggregation; read-out: A-syn (IC50/μM)
Procedure: as §1

T1 sequence (P05067 672-711 limits assumed): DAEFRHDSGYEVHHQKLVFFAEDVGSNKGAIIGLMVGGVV

IC50 (Aβ40) [µM] | IC50 (alpha-synuclein) [µM] | Ratio (Aβ40) | Structure (SMILES)
2.7 | – | – | CCc1ccc(C(=O)N2CCN(c3ccc([N+](=O)[O-])c(N4CCOCC4)c3)CC2)cc1
2.1 | – | – | O=C(c1ccccc1F)N1CCN(c2ccc([N+](=O)[O-])c(NCc3ccco3)c2)CC1
1.4 | – | – | O=C(c1nnc[nH]1)N1CCN(c2ccc([N+](=O)[O-])c(NCc3ccc(Cl)cc3)c2)CC1
> 20 | – | – | COc1ccc(C(=O)N2CCN(c3ccc([N+](=O)[O-])c(NCc4ccco4)c3)CC2)cc1OC
10 to 20 | 51 | 0.09 | O=C(c1ccccc1)N1CCN(c2ccc([N+](=O)[O-])c(NCc3ccccc3)c2)CC1
25.8 | – | 0.58 | CC(=O)N1CCN(c2ccc([N+](=O)[O-])c(NCc3ccccc3)c2)CC1
> 50 | – | – | O=C(c1ccccc1)N1CCN(c2ccc([N+](=O)[O-])c(Oc3ccccc3)c2)CC1
> 50 | – | – | O=[N+]([O-])c1ccc(N2CCN(Cc3ccccc3)CC2)cc1Nc1ccccc1
8.4 | – | 0.72 | CN(C)C(=O)N1CCN(c2ccc([N+](=O)[O-])c(Nc3ccccc3)c2)CC1
178 | – | 0.05 | O=C(Nc1cc(N2CCN(C(=O)c3ccccc3)CC2)ccc1[N+](=O)[O-])c1ccccc1
44 | – | 0.19 | CC(=O)Nc1cc(N2CCN(C(=O)c3ccccc3)CC2)ccc1[N+](=O)[O-]
25 | 4 | 0.88 | CN(C)c1cc(N2CCN(C(=O)c3ccccc3)CC2)ccc1[N+](=O)[O-]
189 | – | 0.05 | O=C(O)c1ccc(N2CCN(C(=O)c3ccccc3)CC2)cc1NCc1ccccc1
265 | – | 0.03 | NC(=O)c1ccc(N2CCN(C(=O)c3ccccc3)CC2)cc1NCc1ccccc1
66.2 | – | 0.13 | CCNC(=O)c1ccc(N2CCN(C(=O)c3ccccc3)CC2)cc1NCc1ccccc1
174 | – | 0.14 | COC(=O)c1ccc(N2CCN(C(=O)c3ccccc3)CC2)cc1NCc1ccccc1
18 | – | 0.22 | O=C(c1ccccc1)N1CCN(c2ccc([N+](=O)[O-])cc2NCc2ccccc2)CC1
23 | – | 0.89 | O=C(O)C1CCN(c2ccc([N+](=O)[O-])c(NCc3ccccc3)c2)CC1
544 | – | 0.05 | O=C(Nc1ccccc1)C1CCN(c2ccc([N+](=O)[O-])c(NCc3ccccc3)c2)CC1
21.7 | – | 0.88 | O=C(O)C1CCCN(c2ccc([N+](=O)[O-])c(NCc3ccccc3)c2)C1 (stereo not drawn)
9 | 11.6 | 0.1 | CN1CCN(c2ccc([N+](=O)[O-])c(NCc3ccccc3)c2)CC1 [drawing 103]
2.5 | 142 | 0.34 | CCCNc1cc(N2CCN(C(=O)c3ccccc3)CC2)ccc1[N+](=O)[O-] [drawing 105]

The remaining lines, values behind:

Structure (SMILES) | IC50 (Aβ40) [µM] | IC50 (alpha-synuclein) [µM] | Ratio (Aβ40)
CC(=O)N1CCN(c2ccc([N+](=O)[O-])c(N3CCc4ccccc4C3)c2)CC1 | 4.03 | – | –
CCOC(=O)C1CCN(c2ccc([N+](=O)[O-])cc2C(=O)c2ccc(Cl)cc2)CC1 | > 20 | – | –
O=C(c1cccs1)N1CCN(c2ccc([N+](=O)[O-])c(-n3nc(-c4ccccc4)c4ccccc4c3=O)c2)CC1 | > 20 | – | –
O=[N+]([O-])c1ccc(Br)cc1NCc1ccccc1 | 20 to 50 | – | –
O=[N+]([O-])c1ccc(N2CCNCC2)cc1Nc1ccccc1 | 8.82 | – | 0.54
CN1CCN(c2ccc([N+](=O)[O-])c(Nc3ccccc3)c2)CC1 | 23.2 | – | 0.42
O=[N+]([O-])c1ccc(N2CCN(S(=O)(=O)c3ccccc3)CC2)cc1Nc1ccccc1 | > 50 | – | –
O=[N+]([O-])c1ccc(N2CCCCC2)cc1Nc1ccccc1 | > 100 | – | –
O=[N+]([O-])c1ccc(N2CCOCC2)cc1Nc1ccccc1 | 23 | – | 0.40
CS(=O)(=O)N1CCN(c2ccc([N+](=O)[O-])c(Nc3ccccc3)c2)CC1 | > 50 | – | –
CN(C)c1ccc([N+](=O)[O-])c(Nc2ccccc2)c1 | 39 | – | 0.15
CN(c1ccccc1)c1cc(N2CCN(C(=O)c3ccccc3)CC2)ccc1[N+](=O)[O-] | 9.64 | 5 | 0.9
CC(=O)Nc1ccc(N2CCN(C(=O)c3ccccc3)CC2)cc1Nc1ccccc1 | – | – | 0.21
O=C(O)c1ccccc1-c1ccc([N+](=O)[O-])c(NCc2ccccc2)c1 | 41.9 | – | 0.5
O=C(O)c1ccc(-c2ccc([N+](=O)[O-])c(NCc3ccccc3)c2)cc1 | 184 | – | 0.02
O=C(Nc1ccccc1)c1ccccc1-c1ccc([N+](=O)[O-])c(NCc2ccccc2)c1 | 152 | – | 0.03
O=C(NCc1ccccc1)c1ccc(-c2ccc([N+](=O)[O-])c(NCc3ccccc3)c2)cc1 | 42 | – | 0.11
O=C(Nc1ccccc1)c1ccc(-c2ccc([N+](=O)[O-])c(NCc3ccccc3)c2)cc1 | 217 | – | 0.07
O=C(Nc1cc([N+](=O)[O-])ccc1N1CCN(C(=O)c2ccccc2)CC1)c1ccccc1 | 1040 | – | 0.01
O=C(NCc1ccccc1)c1ccccc1-c1ccc([N+](=O)[O-])c(NCc2ccccc2)c1 | 631 | – | 0.02
CN(C)C(=O)c1ccc(N2CCN(C(=O)c3ccccc3)CC2)cc1NCc1ccccc1 | 84 | – | 0.11
O=[N+]([O-])c1ccccc1NCc1ccccc1 | 63 | – | 0.38
CC(=O)Nc1cc([N+](=O)[O-])ccc1N1CCN(C(=O)c2ccccc2)CC1 | 105 | – | 0.04

Structure (SMILES) | IC50 (Aβ40) [µM] | IC50 (alpha-synuclein) [µM] | Ratio (Aβ40)
O=C(Nc1ccccc1)c1cccc(-c2ccc([N+](=O)[O-])c(NCc3ccccc3)c2)c1 | 5730 | – | 0
O=C(NCc1ccccc1)c1cccc(-c2ccc([N+](=O)[O-])c(NCc3ccccc3)c2)c1 | 14900 | – | 0
O=C(NCc1ccccc1)C1CCN(c2ccc([N+](=O)[O-])c(NCc3ccccc3)c2)CC1 | 975 | – | 0.03
O=C(c1ccccc1)N1CCN(c2ccc([N+](=O)[O-])cc2Nc2ccccc2)CC1 | 92 | – | 0.34
Nc1ccc(N2CCN(C(=O)c3ccccc3)CC2)cc1Nc1ccccc1 | 1.9 | – | 9.9
CCN(CC)C(=O)c1ccc(N2CCN(C(=O)c3ccccc3)CC2)cc1NCc1ccccc1 | 361 | – | 0.05
Nc1cccc(N2CCN(C(=O)c3ccccc3)CC2)c1 | 428 | – | 0.05
O=C(c1ccccc1)N1CCN(c2cccc(Nc3ccccc3)c2)CC1 | 539 | – | 0.05
Nc1ccc(-c2cccc(C(=O)O)c2)cc1Nc1ccccc1 | 26.6 | 45 | 2.5
Nc1ccc(N2CCN(C(=O)c3ccccc3)CC2)cc1N(Cc1ccccc1)c1ccccc1 | 107 | – | 0.35
CN(C)c1ccc(N2CCN(C(=O)c3ccccc3)CC2)cc1N(C)c1ccccc1 | 148 | – | 0.25
CN(c1ccccc1)c1cc(N2CCN(C(=O)c3ccccc3)CC2)ccc1N | 15.5 | – | 0.65
CNc1ccc(N2CCN(C(=O)c3ccccc3)CC2)cc1N(C)c1ccccc1 | 7.8 | – | 1.3
CNc1ccc(N2CCN(C(=O)c3ccccc3)CC2)cc1Nc1ccccc1 | 2.29 | – | 4.4
O=C(c1ccccc1)N1CCN(c2ccc(NCCO)c(Nc3ccccc3)c2)CC1 | 90 | – | 0.1
O=C(c1ccccc1)N1CCN(c2ccc(NCCN3CCOCC3)c(Nc3ccccc3)c2)CC1 | 54.4 | – | 0.17
COc1ccc(N2CCN(C(=O)c3ccccc3)CC2)cc1Nc1ccccc1 | 238 | – | 0.04
O=C(c1ccccc1)N1CCN(c2cccc([N+](=O)[O-])c2)CC1 [drawing 132] | 196 | – | 0.04
O=C(O)c1cccc(-c2ccc([N+](=O)[O-])c(NCc3ccccc3)c2)c1 [drawing 139] | 1.47 | 8 | 2.85
O=C(O)c1cccc(-c2ccc([N+](=O)[O-])c(Nc3ccccc3)c2)c1 [drawing 149] | 9.23 | 10 | 2.3
CN(C)c1cc([N+](=O)[O-])ccc1N1CCN(C(=O)c2ccccc2)CC1 [drawing 150] | 27 | 15 | 0.8
O=C(c1ccccc1)N1CCN(c2cccc([N+](=O)[O-])c2)CC1 [drawing 151] | 360 | – | 0.06
